The values below come from patent US20090004121A1, “Combination of picotamide with nafronyl” (priority 2007, published 2009).

Holding throughout (type): cell-based
The test system of assay [1] is Thoracic aortic rings. The assay is described as follows: Contracting effect on rat aortic rings (organ bath). The note with it: mean ±S.E.M. On the procedure:
Thoracic aortic rings obtained from male Wistar rats are carefully cleaned of connective tissue. The aortic rings are suspended in the isolated muscle bath (20 mL). Each segment is suspended under a tension of 1 g in Krebs buffer (NaCl 118 mM, KCl 5.4 mM, CaCl2 2.5 mM, MgCl2.6H2O 1.5 mM, NaHCO3 25 mM, NaH2PO4 1.2 mM, glucose 10 mM; pH 7.4) which was bubbled with O2 95%/CO2 5% at 37° C. in 20 mL organ baths (EMKA Technologies, Paris, France). The muscle tension of aortic rings is isometrically recorded with a force-displacement transducer IT1 (EMKA Technologies, Paris, France). The buffer is renewed at 15 min intervals during the equilibrium period (40 min) before exposing the rings to the TXA2-mimetic U-46619 (20 nM), 8-iso-prostaglandin F2α (1 μM) or serotonin (5-hydroxy-tryptamine, 5-HT, 2 μM). When a stable tension is obtained (15 min), the compound of interest is added at a cumulative increasing concentration to the bath until the tension returned to the baseline value. Tension is recorded with a specific data acquisition program (IOX 1.445, EMKA Technologies, Paris, France). The EC50 value of each drug is assessed for at least 6 concentration-response curves obtained from separate preparations. EC50 is expressed as the concentration which reduces 50% of the tension induced by the contracting agent. The results are expressed as mean ±S.E.M. Nafronyl oxalate was obtained from Sigma-Aldrich; picotamide monohydrate was obtained from the European Directory of Quality of Medicines. […] These values are in line with results obtained in previous studies (S. W. Watts and J. M. Thompson, J Pharmacol Exp Ther 309:165-172, 2004; M. Lohn et al., FASEB J 16:1057-63, 2002).

Assay [2] deals with Thoracic aortic rings precontracted with serotonin. Nature of the assay: Relaxation of rat aortic rings using serotonin 2 μM as contracting agent. The note with it: for EC50: Rattus norvegicus, read-out: EC50 relaxing effect. On the procedure: (§1) Thoracic aortic rings obtained from male Wistar rats are carefully cleaned of connective tissue. The aortic rings are suspended in the isolated muscle bath (20 mL). Each segment is suspended under a tension of 1 g in Krebs buffer (NaCl 118 mM, KCl 5.4 mM, CaCl2 2.5 mM, MgCl2.6H2O 1.5 mM, NaHCO3 25 mM, NaH2PO4 1.2 mM, glucose 10 mM; pH 7.4) which was bubbled with O2 95%/CO2 5% at 37° C. in 20 mL organ baths (EMKA Technologies, Paris, France). The muscle tension of aortic rings is isometrically recorded with a force-displacement transducer IT1 (EMKA Technologies, Paris, France). The buffer is renewed at 15 min intervals during the equilibrium period (40 min) before exposing the rings to the TXA2-mimetic U-46619 (20 nM), 8-iso-prostaglandin F2α (1 μM) or serotonin (5-hydroxy-tryptamine, 5-HT, 2 μM). When a stable tension is obtained (15 min), the compound of interest is added at a cumulative increasing concentration to the bath until the tension returned to the baseline value. Tension is recorded with a specific data acquisition program (IOX 1.445, EMKA Technologies, Paris, France). The EC50 value of each drug is assessed for at least 6 concentration-response curves obtained from separate preparations. EC50 is expressed as the concentration which reduces 50% of the tension induced by the contracting agent. The results are expressed as mean ±S.E.M. Nafronyl oxalate was obtained from Sigma-Aldrich; picotamide monohydrate was obtained from the European Directory of Quality of Medicines. Nafronyl oxalate was confirmed to be a potent serotonin antagonist with an EC50 1.54·10^−8 M for its relaxing effect.

Assay [3] relates to rat aorta rings pretreated with 8-iso-prostaglandin F2α. Nature of the assay: Relaxation of rat aortic rings using 8-iso-prostaglandin F2α 1 μM as contracting agent. How it is done: as §1, with “Relaxation experiments on aortas precontracted” for “Nafronyl oxalate was confirmed to be a potent serotonin antagonist”, “8-iso-prostaglandin F2α 1 μM were done with picotamide monohydrate alone in increasing concentrations of 10^−8 M, 10^−7 M, 10^−6 M, 10^−5 M, 10^−4 M, as well as with the same concentrations of picotamide monohydrate in the presence of 1 μM nafronyl.” for “an EC50 1.54·10^−8 M for its relaxing effect.”

The structures appear in SMILES notation. Where a name gives a salt, the structure may show the parent alone. Read-outs that look alike come from different tables or passages of the source.

On to `CCCCC[C@H](O)/C=C/[C@@H]1[C@H](C/C=C\CCCC(=O)O)[C@@H](O)C[C@H]1O` [8-iso-PGF2α, 8-iso-prostaglandin F2α], for which the concentration giving a half-maximal response (EC50) – broadly, the concentration needed to bring the measured effect to its halfway point – in assay [1] came to 1 ± 0.1 µM.

For the molecule `CCN(CC)CCOC(=O)C(Cc1cccc2ccccc12)CC1CCCO1` (stereo not drawn) [Nafronyl oxalate, 2-diethylaminoethyl 2-(naphthalen-1-ylmethyl)-3-(oxolan-2-yl)propanoate], the EC50 in assay [2] (drug alone) is 0.0154 µM; in assay [2] (in the presence of 10^−6 M picotamide), 0.0133 µM; in assay [3] (drug alone), 3.88 µM.

Molecule `COc1ccc(C(=O)NCc2cccnc2)cc1C(=O)NCc1cccnc1` [Picotamide monohydrate, N,N′-bis-(3-picolyl)-4-methoxy-isophthalamide] came in with a tension reduction in assay [2] (10^−5 M picotamide) of 30%. Besides, the EC50 in assay [3] (drug alone) stood at 16.4 µM; in assay [3] (together with 10^−6 M nafronyl oxalate), 2.34 µM.

In assay [1], `CCCCC[C@H](O)/C=C/[C@@H]1[C@@H](C/C=C\CCCC(=O)O)[C@H]2CO[C@@H]1C2` [U-46619] yielded an EC50 of 0.0122 ± 0.00268 µM.

In turn, `NCCc1c[nH]c2ccc(O)cc12` [serotonin, 5-hydroxy-tryptamine] showed an EC50 in assay [1] of 0.98 ± 0.09 µM.
